{
  "source": "ChEMBL document CHEMBL5226297",
  "about": "“Small-Molecule Drug Discovery in Triple Negative Breast Cancer: Current Situation and Future Directions” (J Med Chem, 2021)",
  "key": {"MDA-MB-231 [1]": {"tested_on": "MDA-MB-231", "test": "Anticancer activity against human MDA-MB-231 cells assessed as cell growth inhibition incubated for 24 hrs by MTT assay", "type": "functional, cell-based", "conditions": "MDA-MB-231, 24 h"}, "MDA-MB-468": {"tested_on": "MDA-MB-468", "test": "Anticancer activity against human MDA-MB-468 cells assessed as cell growth inhibition incubated for 48 hrs by MTT assay", "type": "functional, cell-based", "conditions": "MDA-MB-468, 48 h"}, "MDA-MB-231 [2]": {"tested_on": "MDA-MB-231", "test": "cells", "conditions": "Homo sapiens, MDA-MB-231, 48 h"}, "[3]": {"test": "Inhibition of cIAP1 (unknown origin)", "set-up": "species or system Homo sapiens"}, "HCC1937 [4]": {"tested_on": "HCC1937", "test": "Anticancer activity against human HCC1937 cells assessed as cell growth inhibition by MTT assay", "type": "functional, cell-based"}, "BT-549 [5]": {"tested_on": "BT-549", "test": "Anticancer activity against human BT-549 cells assessed as cell growth inhibition by MTT assay", "type": "functional, cell-based"}, "SUM185PE": {"tested_on": "SUM185PE", "test": "Anticancer activity against human SUM185PE cells assessed as cell growth inhibition incubated for 6 days by CellTiter96 analysis", "type": "functional, cell-based", "conditions": "144 h"}, "MDA-MB-436 [6]": {"tested_on": "MDA-MB-436", "test": "Anticancer activity against human MDA-MB-436 cells assessed as cell growth inhibition incubated for 24 hrs by MTT assay", "type": "functional, cell-based", "conditions": "MDA-MB-436, 24 h"}, "[7]": {"molecular_target": "Proto-oncogene tyrosine-protein kinase Src (Homo sapiens, UniProt P12931)", "sequence (P12931 2-536 limits assumed)": "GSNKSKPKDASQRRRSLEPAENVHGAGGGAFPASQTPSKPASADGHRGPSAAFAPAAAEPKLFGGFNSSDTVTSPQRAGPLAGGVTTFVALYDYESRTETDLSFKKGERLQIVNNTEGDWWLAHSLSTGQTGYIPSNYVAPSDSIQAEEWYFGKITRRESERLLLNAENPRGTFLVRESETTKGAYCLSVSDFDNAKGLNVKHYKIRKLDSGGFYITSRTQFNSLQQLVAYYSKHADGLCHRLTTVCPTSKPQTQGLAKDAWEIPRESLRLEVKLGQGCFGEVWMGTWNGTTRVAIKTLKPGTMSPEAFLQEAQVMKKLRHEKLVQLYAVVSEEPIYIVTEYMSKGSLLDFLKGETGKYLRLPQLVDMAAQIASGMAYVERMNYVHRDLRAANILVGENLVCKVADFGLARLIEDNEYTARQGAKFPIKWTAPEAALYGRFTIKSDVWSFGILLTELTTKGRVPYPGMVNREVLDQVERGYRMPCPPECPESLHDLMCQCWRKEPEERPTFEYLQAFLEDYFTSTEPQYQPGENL", "test": "Inhibition of human SRC by microplate reader analysis"}, "BT-549 [8]": {"tested_on": "BT-549", "test": "Anticancer activity against human BT-549 cells assessed as cell growth inhibition incubated for 24 hrs by MTT assay", "type": "functional, cell-based", "conditions": "BT-549, 24 h"}, "[9]": {"molecular_target": "N-lysine methyltransferase SMYD2 (Homo sapiens, UniProt Q9NRG4)", "sequence (Q9NRG4 whole entry)": "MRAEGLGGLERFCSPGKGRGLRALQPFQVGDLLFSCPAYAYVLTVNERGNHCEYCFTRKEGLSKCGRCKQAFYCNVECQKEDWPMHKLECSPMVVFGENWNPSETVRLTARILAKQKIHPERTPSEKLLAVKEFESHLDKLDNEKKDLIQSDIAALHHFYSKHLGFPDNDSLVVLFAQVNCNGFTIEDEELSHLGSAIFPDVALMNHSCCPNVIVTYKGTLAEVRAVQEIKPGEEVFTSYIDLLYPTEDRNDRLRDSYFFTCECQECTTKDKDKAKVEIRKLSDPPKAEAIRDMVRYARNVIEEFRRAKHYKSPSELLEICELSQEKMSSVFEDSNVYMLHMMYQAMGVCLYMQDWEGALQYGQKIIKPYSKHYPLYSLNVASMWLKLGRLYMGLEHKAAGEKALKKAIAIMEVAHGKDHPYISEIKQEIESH", "test": "Inhibition of human SMYD2 by western blot assay"}, "MDA-MB-231 [10]": {"tested_on": "MDA-MB-231", "test": "Anticancer activity against human MDA-MB-231 cells assessed as cell growth inhibition by MTT assay", "type": "functional, cell-based"}, "MDA-MB-436 [11]": {"tested_on": "MDA-MB-436", "test": "Anticancer activity against human MDA-MB-436 cells assessed as cell growth inhibition by crystal violet staining based haemocytometer analysis", "type": "functional"}, "HCC38": {"tested_on": "HCC38", "test": "Anticancer activity against human HCC38 cells assessed as cell growth inhibition by crystal violet staining based haemocytometer analysis", "type": "functional"}, "MDA-MB-231 [12]": {"tested_on": "MDA-MB-231", "test": "Anticancer activity against human MDA-MB-231 cells assessed as cell growth inhibition by crystal violet staining based haemocytometer analysis", "type": "functional"}, "[13]": {"molecular_target": "Plasminogen activator inhibitor 1 (Homo sapiens) (UniProt P05121)", "sequence (P05121 whole entry)": "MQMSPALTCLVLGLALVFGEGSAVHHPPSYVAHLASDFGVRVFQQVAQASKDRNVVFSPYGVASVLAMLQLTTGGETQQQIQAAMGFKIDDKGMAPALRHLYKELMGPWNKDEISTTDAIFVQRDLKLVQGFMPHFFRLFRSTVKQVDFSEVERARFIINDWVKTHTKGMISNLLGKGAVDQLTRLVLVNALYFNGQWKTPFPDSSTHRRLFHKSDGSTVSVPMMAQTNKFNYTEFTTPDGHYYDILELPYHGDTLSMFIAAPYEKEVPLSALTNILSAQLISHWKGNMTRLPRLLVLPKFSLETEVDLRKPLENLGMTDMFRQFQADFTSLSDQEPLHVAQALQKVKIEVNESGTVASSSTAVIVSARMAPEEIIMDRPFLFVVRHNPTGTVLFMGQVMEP"}, "[14]": {"molecular_target": "Eukaryotic elongation factor 2 kinase (Homo sapiens, UniProt O00418)", "sequence (O00418 whole entry)": "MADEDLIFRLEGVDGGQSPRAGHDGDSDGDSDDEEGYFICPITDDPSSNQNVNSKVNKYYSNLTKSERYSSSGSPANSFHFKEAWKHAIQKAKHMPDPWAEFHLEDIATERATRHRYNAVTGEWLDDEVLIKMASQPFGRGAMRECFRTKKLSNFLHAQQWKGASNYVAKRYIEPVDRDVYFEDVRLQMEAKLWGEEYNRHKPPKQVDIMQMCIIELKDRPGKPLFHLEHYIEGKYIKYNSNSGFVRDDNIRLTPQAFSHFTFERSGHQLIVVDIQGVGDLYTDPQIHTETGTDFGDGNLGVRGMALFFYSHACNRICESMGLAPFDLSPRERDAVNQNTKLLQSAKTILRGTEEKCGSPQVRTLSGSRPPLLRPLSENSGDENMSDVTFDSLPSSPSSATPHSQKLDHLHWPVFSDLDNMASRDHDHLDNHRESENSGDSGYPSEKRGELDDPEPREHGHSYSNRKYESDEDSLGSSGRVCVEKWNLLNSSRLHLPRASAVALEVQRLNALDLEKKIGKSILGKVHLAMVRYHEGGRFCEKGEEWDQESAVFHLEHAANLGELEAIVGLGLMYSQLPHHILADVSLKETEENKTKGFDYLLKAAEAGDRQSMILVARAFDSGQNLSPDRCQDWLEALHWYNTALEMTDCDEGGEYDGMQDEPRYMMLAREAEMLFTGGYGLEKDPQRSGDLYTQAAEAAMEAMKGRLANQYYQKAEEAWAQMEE", "test": "Inhibition of eEF2K (unknown origin) by western blot analysis"}, "HCC1806 [15]": {"tested_on": "HCC1806", "test": "Anticancer activity against human HCC1806 cells assessed as cell growth inhibition incubated for 48 hrs by SRB assay", "type": "functional, cell-based", "conditions": "HCC1806, 48 h"}, "HCC1937 [16]": {"tested_on": "HCC1937", "test": "Anticancer activity against human HCC1937 cells assessed as cell growth inhibition incubated for 5 days by sulforhodamine B staining based assay", "type": "functional", "conditions": "HCC1937, 120 h"}, "BT-20": {"tested_on": "BT-20", "test": "Anticancer activity against human BT-20 cells assessed as cell growth inhibition incubated for 5 days by sulforhodamine B staining based assay", "type": "functional", "conditions": "BT-20, 120 h"}, "HCC1806 [17]": {"tested_on": "HCC1806", "test": "Anticancer activity against human HCC1806 cells assessed as cell growth inhibition incubated for 5 days by sulforhodamine B staining based assay", "type": "functional", "conditions": "HCC1806, 120 h"}, "SUM149PT": {"tested_on": "SUM149PT", "test": "Anticancer activity against human SUM149 cells assessed as cell growth inhibition incubated for 5 days by sulforhodamine B staining based assay", "type": "functional", "conditions": "120 h"}, "SUM-159-PT": {"tested_on": "SUM-159-PT", "test": "Anticancer activity against human SUM159 cells assessed as cell growth inhibition incubated for 5 days by sulforhodamine B staining based assay", "type": "functional", "conditions": "120 h"}, "HCC70 [18]": {"tested_on": "HCC70", "test": "Anticancer activity against human HCC70 cells assessed as cell growth inhibition incubated for 5 days by sulforhodamine B staining based assay", "type": "functional", "conditions": "HCC70, 120 h"}, "MDA-MB-231 [19]": {"tested_on": "MDA-MB-231", "test": "Anticancer activity against human MDA-MB-231 cells assessed as cell growth inhibition incubated for 5 days by sulforhodamine B staining based assay", "type": "functional", "conditions": "MDA-MB-231, 120 h"}, "MDA-MB-231 [20]": {"tested_on": "MDA-MB-231", "test": "Anticancer activity against human MDA-MB-231 cells assessed as cell growth inhibition incubated up to 72 hrs by Cell-Titre Glo assay", "type": "functional, cell-based", "conditions": "MDA-MB-231, 72 h"}, "HCC70 [21]": {"tested_on": "HCC70", "test": "Anticancer activity against human HCC70 cells assessed as cell growth inhibition incubated up to 72 hrs by Cell-Titre Glo assay", "type": "functional, cell-based", "conditions": "HCC70, 72 h"}, "[22]": {"molecular_target": "Protein SET (Homo sapiens) (UniProt Q01105)", "sequence (Q01105 whole entry)": "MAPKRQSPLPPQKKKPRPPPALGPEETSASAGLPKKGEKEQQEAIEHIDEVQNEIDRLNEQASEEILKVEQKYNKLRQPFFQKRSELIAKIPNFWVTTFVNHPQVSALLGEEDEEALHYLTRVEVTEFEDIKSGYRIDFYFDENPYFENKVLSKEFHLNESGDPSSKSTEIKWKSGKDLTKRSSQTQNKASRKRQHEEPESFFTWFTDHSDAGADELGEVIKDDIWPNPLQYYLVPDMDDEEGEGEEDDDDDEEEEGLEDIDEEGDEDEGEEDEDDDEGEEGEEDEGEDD", "test": "Inhibition of SET (unknown origin)"}},
  "data": [
    {"smiles": "C=C1C(=O)O[C@@H]2C[C@@]3(C)CCC[C@H](C)C3=C[C@H]12", "note": "[HELENINE]", "values": [
      {"measurement": "IC50", "setting": "MDA-MB-231 [1]", "value": 15, "unit": "µM"}
    ]},
    {"smiles": "Cc1c(-c2ccc(O)cc2)n(Cc2ccc(OCCN3CCCCCC3)cc2)c2ccc(O)cc12", "note": "[BAZEDOXIFENE]", "values": [
      {"measurement": "IC50", "setting": "MDA-MB-468", "value": 3.14, "unit": "µM"},
      {"measurement": "IC50", "setting": "MDA-MB-231 [2]", "value": 7.45, "unit": "µM"}
    ]},
    {"smiles": "CN[C@@H](C)C(=O)N[C@H](C(=O)N1CCC[C@H]1c1nc(C(=O)c2ccc(F)cc2)cs1)C1CCCCC1", "note": "[LCL-161]", "values": [
      {"measurement": "IC50", "setting": "[3]", "value": 0.0004, "unit": "µM"}
    ]},
    {"smiles": "Cc1cc(C=C2C(=O)C=CC2=O)cc(C)c1O", "values": [
      {"measurement": "IC50", "setting": "HCC1937 [4]", "value": 51.1, "unit": "µM"},
      {"measurement": "IC50", "setting": "BT-549 [5]", "value": 27.5, "unit": "µM"}
    ]},
    {"smiles": "CCN(CC)CCCCNc1ncc2cc(-c3cc(OC)cc(OC)c3)c(NC(=O)NC(C)(C)C)nc2n1", "note": "[PD-173074]", "values": [
      {"measurement": "IC50", "setting": "SUM185PE", "value": 0.02, "unit": "µM"}
    ]},
    {"smiles": "Cc1nc(NCc2ccccc2F)ncc1C(=O)NCc1cccs1", "values": [
      {"measurement": "IC50", "setting": "MDA-MB-436 [6]", "value": 7.89, "unit": "µM"}
    ]},
    {"smiles": "Cc1nc2c(c(C)c1O)CC(=O)N2", "values": [
      {"measurement": "IC50", "setting": "[7]", "value": 3.23, "unit": "µM"}
    ]},
    {"smiles": "C=C1C(=O)O[C@]2(C)CC[C@H](CBr)[C@]12OC", "values": [
      {"measurement": "IC50", "setting": "MDA-MB-436 [6]", "value": 8.63, "unit": "µM"},
      {"measurement": "IC50", "setting": "BT-549 [8]", "value": 6.61, "unit": "µM"},
      {"measurement": "IC50", "setting": "MDA-MB-231 [1]", "value": 7.91, "unit": "µM"}
    ]},
    {"smiles": "O=C1COc2c(CCNCCN(C(=O)CCNCCc3ccc(Cl)c(Cl)c3)C3CCCCC3)ccc(O)c2N1", "values": [
      {"measurement": "IC50", "setting": "[9]", "value": 20, "unit": "µM"}
    ]},
    {"smiles": "O=C(/C=C/c1ccc(O)c(O)c1)O[C@@H]1C[C@](OC(=O)/C=C/c2ccc(O)c(O)c2)(C(=O)O)C[C@@H](O)[C@H]1O", "note": "[1,5-O-TRANS-DICAFFEOYLQUINIC ACID]", "values": [
      {"measurement": "IC50", "setting": "MDA-MB-231 [10]", "value": 81.9, "unit": "µM"}
    ]},
    {"smiles": "CN(C)CC/C=C1\\c2ccccc2COc2ccc(CC(=O)NN)cc21", "values": [
      {"measurement": "IC50", "setting": "MDA-MB-436 [6]", "value": 5, "unit": "µM"}
    ]},
    {"smiles": "CC(=O)c1c(C)c2cnc(Nc3ccc(N4CCNCC4)cn3)nc2n(C2CCCC2)c1=O", "note": "[PALBOCICLIB]", "values": [
      {"measurement": "EC50", "setting": "MDA-MB-436 [11]", "value": 5, "unit": "µM"},
      {"measurement": "EC50", "setting": "HCC38", "value": 1.4, "unit": "µM"},
      {"measurement": "EC50", "setting": "MDA-MB-231 [12]", "value": 0.3, "unit": "µM"}
    ]},
    {"smiles": "O=C(O)C(=O)c1cn(Cc2ccccc2)c2ccc(-c3ccc(OC(F)(F)F)cc3)cc12", "values": [
      {"measurement": "IC", "setting": "[13]", "value": 5, "unit": "µM"}
    ]},
    {"smiles": "CC1=CC(=O)C(C(C)C)=CC1=O", "note": "[THYMOQUINONE]", "values": [
      {"measurement": "IC50", "setting": "[14]", "value": 8.2, "unit": "µM"}
    ]},
    {"smiles": "CC(=O)N1c2ccccc2Oc2ccccc21", "values": [
      {"measurement": "IC50", "setting": "MDA-MB-231 [1]", "value": 0.3, "unit": "µM"}
    ]},
    {"smiles": "C[C@H]1[C@H](C)CC[C@]2(C(=O)N3CCNCC3)CC[C@]3(C)C(=CC[C@@H]4[C@@]5(C)Cc6cn[nH]c6C(C)(C)[C@@H]5CC[C@]43C)[C@H]12", "values": [
      {"measurement": "IC50", "setting": "HCC1806 [15]", "value": 7, "unit": "µM"}
    ]},
    {"smiles": "N[C@@H](C(=O)N[C@@H]1C(=O)N2C(C(=O)O)=C(CSc3c[nH]nn3)CS[C@H]12)c1ccc(O)cc1", "note": "[CEFATRIZINE]", "values": [
      {"measurement": "IC50", "setting": "MDA-MB-436 [6]", "value": 30, "unit": "µM"}
    ]},
    {"smiles": "CCNc1cc(O)c2c(c1)/C=C/C[C@H](O)[C@H](O)C(=O)/C=C\\[C@@H](C)[C@H](C)OC2=O", "note": "[E-6201]", "values": [
      {"measurement": "IC50", "setting": "HCC1937 [16]", "value": 3.73, "unit": "µM"},
      {"measurement": "IC50", "setting": "BT-20", "value": 10.1, "unit": "µM"},
      {"measurement": "IC50", "setting": "HCC1806 [17]", "value": 2.5, "unit": "µM"},
      {"measurement": "IC50", "setting": "SUM149PT", "value": 0.21, "unit": "µM"},
      {"measurement": "IC50", "setting": "SUM-159-PT", "value": 2.36, "unit": "µM"},
      {"measurement": "IC50", "setting": "HCC70 [18]", "value": 8.79, "unit": "µM"},
      {"measurement": "IC50", "setting": "MDA-MB-231 [19]", "value": 0.25, "unit": "µM"}
    ]},
    {"smiles": "O=C(Nc1ccc([N+](=O)[O-])cc1Cl)c1cc(Cl)ccc1O", "note": "[NICLOSAMIDE]", "values": [
      {"measurement": "IC50", "setting": "MDA-MB-231 [1]", "value": 0.625, "unit": "µM"}
    ]},
    {"smiles": "CC(=O)O[C@@H]1[C@@H](OC(C)=O)[C@@H](O)[C@H](Oc2c(-c3ccc(O)cc3)oc3cc(O)cc(O)c3c2=O)O[C@H]1C", "values": [
      {"measurement": "IC50", "setting": "MDA-MB-231 [20]", "value": 3, "unit": "µM"},
      {"measurement": "IC50", "setting": "HCC70 [21]", "value": 15, "unit": "µM"}
    ]},
    {"smiles": "C#Cc1cccc(Nc2nc(Nc3ccc(Oc4ccccc4)cc3)nc3cc(OC)c(OC)cc23)c1", "values": [
      {"measurement": "IC", "setting": "[22]", "value": 3, "unit": "µM"}
    ]}
  ]
}
